In patent US20220017572A1, “GEMINOID LIPOPEPTIDE COMPOUNDS AND THEIR USES” (Erasmus University Medical Center Rotterdam, priority 2016, published 2022):
Residues, ends and D or L forms follow the SMILES beside them.

Tests used:
[1] = biological target: thrombin (Homo sapiens, UniProt P00734); assay: Thrombin inhibition, fluorimetric enzyme assay; assay type: biochemical; details: 36.5° C., read-out: Residual Activity (%) Thrombin
Method: The enzyme was dissolved in 1 mL MES buffer (10 mM), 1 mM CaCl2, pH 7.0 at 36.5° C. Substrate was added in a concentration 10 times the Km, and the inhibitor compounds of type C (C16-KGnK-C16, C16-KAnK-C16, and C16-RAnR-C16) were added in increasing concentrations (1.0, 5.0, 10.0, 20.0, 40.0 μL) from a stock solution of 2 mg in 1 mL DMSO. The residual activity was measured in a Hitachi F2500 spectrofluorimeter, and plots were fitted using the Grafit® software (Erithracus Software, Horley, Surrey, UK). All the assays were calculated by the Morrison equation for competitive inhibition (eq. 1, [Morrison, 1969]). The amount of substrate used for the tight binding titration experiments follow all the requirements, where [S]<<Km for all enzymes, so the Kiapp=Ki. […]

[2] = test system: DENV2 protease replicon; assay: DENV2 protease replicon assay; assay type: cell-based; details: lowest concentration with observed activity in replicon assay
[3] = biological target: T1, DENV2 protease (Dengue virus type 2, UniProt P14340); assay: DENV2 protease biochemical assay; details: 50 μM inhibitor
T1 construct: The active site of the dengue protease is in the N-terminal part of NS3
T1 sequence (P14340 1476-1653): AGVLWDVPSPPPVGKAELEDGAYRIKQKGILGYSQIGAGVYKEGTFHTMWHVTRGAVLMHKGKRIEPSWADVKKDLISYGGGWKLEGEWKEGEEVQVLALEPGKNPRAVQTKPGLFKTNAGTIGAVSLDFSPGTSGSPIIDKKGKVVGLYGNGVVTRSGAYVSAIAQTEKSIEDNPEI
T1 sequence (P14340 1398-1437): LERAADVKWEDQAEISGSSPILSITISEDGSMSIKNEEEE

[4] = biological target: T2, dengue 2 protease (Dengue virus type 2, UniProt P14340); assay: Dengue 2 protease inhibition, hydrolysis of Z-RR-MCA; assay type: biochemical, dengue 2 virus; parameters: unit not given here; details: 30 μM of inhibitor; 10 μM Z-RR-MCA, pH 9.0, 37° C.; initial activity in UAF/min
T2 construct: The active site of the dengue protease is in the N-terminal part of NS3
T2 sequence (P14340 1476-1653): as the sequence (P14340 1476-1653) above

[5] = biological target: T3, trypsin (Bos taurus, UniProt P00760); assay: Trypsin inhibition, fluorimetric enzyme assay; assay type: biochemical
T3 construct: gene PRSS1
T3 sequence (P00760 24-246): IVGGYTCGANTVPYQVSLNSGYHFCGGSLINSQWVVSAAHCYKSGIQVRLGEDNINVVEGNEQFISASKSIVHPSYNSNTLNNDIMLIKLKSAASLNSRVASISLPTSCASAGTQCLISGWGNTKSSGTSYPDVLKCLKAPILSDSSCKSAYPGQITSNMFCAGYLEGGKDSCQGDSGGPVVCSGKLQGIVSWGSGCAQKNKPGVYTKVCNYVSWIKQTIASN
Method: (§1) The enzyme was dissolved in 1 mL MES buffer (10 mM), 1 mM CaCl2, pH 7.0 at 36.5° C. Substrate was added in a concentration 10 times the Km, and the inhibitor compounds of type C (C16-KGnK-C16, C16-KAnK-C16, and C16-RAnR-C16) were added in increasing concentrations (1.0, 5.0, 10.0, 20.0, 40.0 μL) from a stock solution of 2 mg in 1 mL DMSO. The residual activity was measured in a Hitachi F2500 spectrofluorimeter, and plots were fitted using the Grafit® software (Erithracus Software, Horley, Surrey, UK). All the assays were calculated by the Morrison equation for competitive inhibition (eq. 1, [Morrison, 1969]). The amount of substrate used for the tight binding titration experiments follow all the requirements, where [S]<<Km for all enzymes, so the Kiapp=Ki.
(§2) The first group of gemini-like peptide amphiphiles to be screened was that of C16-K(G or A)nK-C16 (compound type C, with R1=n-C15H31, R2=n-C16H33). […] The results of the Ki determination for trypsin, dengue 2 protease, and human furin are given in Table 1A; some general data for the inhibition by this type of compounds are given in Table 1B. For most compounds in Table 1 the Ki could be derived from competitive inhibition experiments. Judging from the Ki values with the relatively simple substrate Z-RR-MCA, the best inhibitors for dengue 2 protease contain alanine (A) rather than glycine (G).

[6] = biological target: plasmin (Homo sapiens, UniProt P00747); assay: Plasmin inhibition, fluorimetric enzyme assay; assay type: biochemical; details: 36.5° C., read-out: Residual Activity (%) Plasmin
Chain of plasmin (P00747 581-810 limits assumed, species assumed): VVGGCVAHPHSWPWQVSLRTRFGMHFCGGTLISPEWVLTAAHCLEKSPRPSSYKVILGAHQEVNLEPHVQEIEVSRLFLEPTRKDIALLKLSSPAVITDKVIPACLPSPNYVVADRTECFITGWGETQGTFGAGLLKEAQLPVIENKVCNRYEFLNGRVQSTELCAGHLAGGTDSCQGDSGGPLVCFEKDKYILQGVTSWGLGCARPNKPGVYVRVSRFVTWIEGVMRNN
Chain of plasmin (P00747 97-580 partner limits assumed, species assumed): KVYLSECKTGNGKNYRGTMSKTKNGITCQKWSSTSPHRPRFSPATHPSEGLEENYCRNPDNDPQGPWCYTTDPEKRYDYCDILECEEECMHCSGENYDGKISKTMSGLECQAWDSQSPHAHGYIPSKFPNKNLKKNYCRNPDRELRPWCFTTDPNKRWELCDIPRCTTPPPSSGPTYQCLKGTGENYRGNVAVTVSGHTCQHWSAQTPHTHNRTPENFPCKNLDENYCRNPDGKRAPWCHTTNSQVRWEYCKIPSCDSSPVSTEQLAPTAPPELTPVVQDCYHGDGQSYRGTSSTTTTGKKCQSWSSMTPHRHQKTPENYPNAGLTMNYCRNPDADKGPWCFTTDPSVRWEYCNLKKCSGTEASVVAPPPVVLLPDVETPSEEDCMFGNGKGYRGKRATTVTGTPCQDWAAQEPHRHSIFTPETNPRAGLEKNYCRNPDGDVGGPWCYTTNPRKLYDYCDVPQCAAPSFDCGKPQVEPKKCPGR
Method: as §1, §2

[7] = biological target: human furin (Homo sapiens, UniProt P09958); assay: Human furin inhibition, hydrolysis of Ac-RVRR-MCA; assay type: biochemical; details: for activity at 5 µM: 5 μM inhibitor; for activity at 10 µM: 10 μM inhibitor; for activity at 15 µM: 15 μM inhibitor; for activity at 40 µM: 40 μM inhibitor
Chain of human furin (P09958 108-794): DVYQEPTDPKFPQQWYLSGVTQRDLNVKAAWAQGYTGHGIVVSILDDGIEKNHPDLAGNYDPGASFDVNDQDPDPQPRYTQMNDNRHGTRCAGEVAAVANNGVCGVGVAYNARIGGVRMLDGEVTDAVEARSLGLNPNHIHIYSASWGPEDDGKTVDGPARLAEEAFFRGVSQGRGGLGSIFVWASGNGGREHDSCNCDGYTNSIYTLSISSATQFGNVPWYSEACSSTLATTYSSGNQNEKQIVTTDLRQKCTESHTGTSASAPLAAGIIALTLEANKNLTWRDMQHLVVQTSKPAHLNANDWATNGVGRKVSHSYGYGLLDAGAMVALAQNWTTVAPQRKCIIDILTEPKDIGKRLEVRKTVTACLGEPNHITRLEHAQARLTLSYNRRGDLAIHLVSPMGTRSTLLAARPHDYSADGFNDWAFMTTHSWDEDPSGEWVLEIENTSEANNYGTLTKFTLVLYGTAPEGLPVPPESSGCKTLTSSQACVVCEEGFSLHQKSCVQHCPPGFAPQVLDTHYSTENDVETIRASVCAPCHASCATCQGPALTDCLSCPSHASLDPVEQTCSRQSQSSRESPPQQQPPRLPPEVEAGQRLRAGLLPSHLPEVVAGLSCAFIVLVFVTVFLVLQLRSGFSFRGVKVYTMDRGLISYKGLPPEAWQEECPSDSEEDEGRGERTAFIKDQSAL
Method: as §1
However, for furin we used a correction of Ki app, where [S]˜Km (eq. 2).
Range of Proteases Inhibited by Geminoids, Determination of Ki with Z-RR-MCA (Dengue 2 Protease) and Ac-RVRR-MCA (Furin) (SEQ ID NO:60).

[8] = biological target: T2, dengue 2 protease; assay: Dengue 2 protease inhibition in presence of Triton X-100 (detergent test, Nature Protocol); assay type: biochemical, dengue 2 virus; details: 0.05% Triton X-100; for Activity with 0.05% Triton: initial activity in UAF/min
Text: A further investigation of the interactions of the geminoid inhibitors with biological membranes and with membrane-bound proteases is needed. […] The preparation and tests of peptides symmetrically, asymmetrically and singly alkylated with saturated, short (C6), and unsaturated (C18:1) alkyl tails are in progress.

[9] = biological target: T2, dengue 2 protease; assay: Dengue 2 protease inhibition, hydrolysis of Z-RR-MCA; assay type: biochemical, dengue 2 virus; parameters: Activity with inhibitors: unit not given here; details: for activity at 5 µM: 5 μM inhibitor; for activity at 10 µM: 10 μM inhibitor; for activity at 15 µM: 15 μM inhibitor; for activity at 40 µM: 40 μM inhibitor

CCCCCCCCCCCCCCCCNC(=O)[C@H](CCCCN)NC(=O)[C@H](C)NC(=O)[C@H](CCCCN)NC(=O)CCCCCCCCCCCCCCC [C16-KAK-C16]
remaining activity at 15 µM ([1]; 15 μM inhibitor): 80% | remaining activity at 40 µM ([1]; 40 μM inhibitor): 64% | remaining activity at 80 µM ([1]; 80 μM inhibitor): 42% | Replicon activity [μM] (1) [2]: 0.3 µM | inhibition at 50 µM [3]: 106% | Activity with inhibitors [4]: 0 | Ki [5]: 15.2 µM | remaining activity at 15 µM ([5]; 15 μM inhibitor, 36.5° C., read-out: Residual Activity (%) Trypsin): 68% | remaining activity at 40 µM ([5]; 40 μM inhibitor, 36.5° C., read-out: Residual Activity (%) Trypsin): 35% | remaining activity at 80 µM ([5]; 80 μM inhibitor, 36.5° C., read-out: Residual Activity (%) Trypsin): 21% | remaining activity at 15 µM ([6]; 15 μM inhibitor): 62% | remaining activity at 40 µM ([6]; 40 μM inhibitor): 20% | remaining activity at 80 µM ([6]; 80 μM inhibitor): 3% | activity at 2.5 µM ([7]; 2.5 μM inhibitor, 36.5° C.): 43% | activity at 5 µM ([7]; 36.5° C.): 30% | activity at 10 µM ([7]; 36.5° C.): 10% | activity at 15 µM ([7]; 36.5° C.): 0% | activity at 40 µM ([7]; 36.5° C.): 0% | Ki ([7]; 10 mM Mes.NaOH, pH 7.0, 2.35 μM Ac-RVRR-MCA, 37° C., read-out: Ki hFurin): 0.54 µM | % recovery in presence of Triton ([8]; 30 μM of inhibitor): 41% | Activity with 0.05% Triton ([8]; 30 μM of inhibitor): 91 | Ki [9]: 0.37 µM | activity at 2.5 µM ([9]; 2.5 μM inhibitor, 36.5° C.): 87% | activity at 5 µM ([9]; 36.5° C.): 66% | activity at 10 µM ([9]; 36.5° C.): 26% | activity at 15 µM ([9]; 36.5° C.): 15% | activity at 40 µM ([9]; 36.5° C.): 6%

CCCCCCCCCCCCCCCCNC(=O)[C@H](CCCCN)NC(=O)CNC(=O)CNC(=O)[C@H](CCCCN)NC(=O)CCCCCCCCCCCCCCC [C16-KGGK-C16, C15H31CO-KGGK-NH—C16H33] (HELM PEPTIDE1{[CCCCCCCCCCCCCCCC(=O)[*:2]].K.G.G.K.[CCCCCCCCCCCCCCCCN[*:1]]}$$$$V2.0)
remaining activity at 18 µM ([1]; 18 μM inhibitor): 78% | remaining activity at 55 µM ([1]; 55 μM inhibitor): 46% | remaining activity at 85 µM ([1]; 85 μM inhibitor): 33% | Replicon activity [μM] (1) [2]: 0.3 µM | inhibition at 50 µM [3]: 104% | remaining activity at 18 µM ([5]; 18 μM inhibitor, 36.5° C., read-out: Residual Activity (%) Trypsin): 79% | remaining activity at 55 µM ([5]; 55 μM inhibitor, 36.5° C., read-out: Residual Activity (%) Trypsin): 45% | remaining activity at 85 µM ([5]; 85 μM inhibitor, 36.5° C., read-out: Residual Activity (%) Trypsin): 24% | remaining activity at 18 µM ([6]; 18 μM inhibitor): 30% | remaining activity at 55 µM ([6]; 55 μM inhibitor): 11% | remaining activity at 85 µM ([6]; 85 μM inhibitor): 4% | activity at 5 µM ([7]; 36.5° C.): 94% | activity at 10 µM ([7]; 36.5° C.): 85% | activity at 15 µM ([7]; 36.5° C.): 76% | activity at 20 µM ([7]; 20 μM inhibitor, 36.5° C.): 67% | activity at 40 µM ([7]; 36.5° C.): 3% | % recovery in presence of Triton ([8]; 10 μM of inhibitor): 73% | Activity with 0.05% Triton ([8]; 10 μM of inhibitor): 160 | Ki [9]: 5.75 µM | activity at 5 µM ([9]; 36.5° C.): 88% | activity at 10 µM ([9]; 36.5° C.): 84% | Activity with inhibitors ([9]; 10 μM of inhibitor, 10 μM Z-RR-MCA, pH 9.0, 37° C., initial activity in UAF/min): 10 | activity at 15 µM ([9]; 36.5° C.): 76% | activity at 20 µM ([9]; 20 μM inhibitor, 36.5° C.): 70% | activity at 40 µM ([9]; 36.5° C.): 64%
